Results from ChEMBL document CHEMBL4265893, “Design, synthesis and biological evaluation of ring A modified 11-keto-boswellic acid derivatives as Pin1 inhibitors with remarkable anti-prostate cancer activity” (Bioorg Med Chem Lett, 2018).

Tests used:
[1] = molecular target: T1, Peptidyl-prolyl cis-trans isomerase NIMA-interacting 1 (Homo sapiens, UniProt Q13526); experiment: Inhibition of recombinant N-terminal His6-tagged human Pin1 at 10 uM using Suc-Ala-Glu-cis-Pro-Phe-4-nitroanilide as substrate preincubated for 30 mins followed by substrate addition measured for 90 secs
T1 sequence (Q13526 whole entry): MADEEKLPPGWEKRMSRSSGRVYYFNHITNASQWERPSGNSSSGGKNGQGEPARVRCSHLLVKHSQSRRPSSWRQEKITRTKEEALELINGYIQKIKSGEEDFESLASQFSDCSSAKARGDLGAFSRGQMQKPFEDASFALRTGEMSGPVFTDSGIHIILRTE

[2] = molecular target: T1, Peptidyl-prolyl cis-trans isomerase NIMA-interacting 1; experiment: Inhibition of recombinant N-terminal His6-tagged human Pin1 using Suc-Ala-Glu-cis-Pro-Phe-4-nitroanilide as substrate preincubated for 30 mins followed by substrate addition measured for 90 secs
PC-3 [3] = experiment: Antiproliferative activity against human PC3 cells after 96 hrs by MTT assay; type: functional; conditions: PC-3, 96 h
PC-3 [4] = experiment: Induction of apoptosis in human PC3 cells assessed as downregulation of Cyclin D1 expression after 24 hrs by Western blot analysis; type: functional, cell-based
PC-3 [5] = experiment: Cell cycle arrest in human PC3 cells assessed as accumulation at G0/G1 phase at 0.25 uM after 24 hrs by RNase/propidium iodide staining-based flow cytometric analysis (reference value: 55.03%); type: functional
PC-3 [6] = experiment: Cell cycle arrest in human PC3 cells assessed as accumulation at G0/G1 phase at 0.5 uM after 24 hrs by RNase/propidium iodide staining-based flow cytometric analysis (reference value: 55.03%); type: functional
PC-3 [7] = experiment: Cell cycle arrest in human PC3 cells assessed as accumulation at G0/G1 phase at 1 uM after 24 hrs by RNase/propidium iodide staining-based flow cytometric analysis (reference value: 55.03%); type: functional

| inhibition [1] | IC50 [2] | GI50 (PC-3 [3]) | SMILES | Activity (PC-3 [4]) | Activity (PC-3 [5]) | Activity (PC-3 [6]) | Activity (PC-3 [7]) |
| --- | --- | --- | --- | --- | --- | --- | --- |
| 66% |  | 7.8 µM | C[C@H]1[C@H](C)CC[C@]2(C)CC[C@]3(C)C(=CC(=O)[C@@H]4[C@@]5(C)CC[C@@H](OC(=O)COc6ccc(-c7cc(-c8ccccc8)[nH]n7)cc6)[C@](C)(C(=O)O)[C@@H]5CC[C@]43C)[C@H]12 |  |  |  |  |
| 35% |  | 18.5 µM | C[C@H]1[C@H](C)CC[C@]2(C)CC[C@]3(C)C(=CC(=O)[C@@H]4[C@@]5(C)CC[C@@H](OC(=O)COc6ccccc6)[C@](C)(C(=O)O)[C@@H]5CC[C@]43C)[C@H]12 |  |  |  |  |
| 49% |  | > 50 µM | C[C@H]1[C@H](C)CC[C@]2(C)CC[C@]3(C)C(=CC(=O)[C@@H]4[C@@]5(C)CC[C@@H](OC(=O)CN6CCNCC6)[C@](C)(C(=O)O)[C@@H]5CC[C@]43C)[C@H]12 |  |  |  |  |
| 51% |  | 8 µM | COC(=O)[C@@]1(C)C(=O)/C(=C/C(=O)O)C[C@]2(C)[C@H]3C(=O)C=C4[C@@H]5[C@@H](C)[C@H](C)CC[C@]5(C)CC[C@@]4(C)[C@]3(C)CC[C@@H]12 |  |  |  |  |
| 97% | 0.46 µM | 1.82 µM | C[C@H]1[C@H](C)CC[C@]2(C)CC[C@]3(C)C(=CC(=O)[C@@H]4[C@@]5(C)C/C(=C\C(=O)O)C(=O)[C@](C)(C(=O)OCc6ccccc6)[C@@H]5CC[C@]43C)[C@H]12 | Dose-dependent effect | 62.35% | 67.62% | 72% |
| 32% |  | 9.42 µM | CC(=O)N1N=C(c2ccc(OCC(=O)O[C@@H]3CC[C@@]4(C)[C@@H](CC[C@]5(C)[C@@H]4C(=O)C=C4[C@@H]6[C@@H](C)[C@H](C)CC[C@]6(C)CC[C@]45C)[C@@]3(C)C(=O)O)cc2)CC1c1ccccc1 (some centres undefined) |  |  |  |  |
| 24% |  | 37.9 µM | C[C@H]1[C@H](C)CC[C@]2(C)CC[C@]3(C)C(=CC(=O)[C@@H]4[C@@]5(C)CC[C@@H](OC(=O)CN6CCN(C)CC6)[C@](C)(C(=O)O)[C@@H]5CC[C@]43C)[C@H]12 |  |  |  |  |
| 57% |  | > 50 µM | COc1ccccc1/C=C1\C[C@]2(C)[C@H]3C(=O)C=C4[C@@H]5[C@@H](C)[C@H](C)CC[C@]5(C)CC[C@@]4(C)[C@]3(C)CC[C@H]2[C@@](C)(C(=O)OCc2ccccc2)C1=O |  |  |  |  |
| 40% |  | 32.1 µM | C[C@H]1[C@H](C)CC[C@]2(C)CC[C@]3(C)C(=CC(=O)[C@@H]4[C@@]5(C)C/C(=C\c6ccc(C(=O)O)cc6)C(=O)[C@](C)(C(=O)OCc6ccccc6)[C@@H]5CC[C@]43C)[C@H]12 |  |  |  |  |
| 26% | 50.4 µM | 31.9 µM | CC(=O)O[C@@H]1CC[C@@]2(C)[C@@H](CC[C@]3(C)[C@@H]2C(=O)C=C2[C@@H]4[C@@H](C)[C@H](C)CC[C@]4(C)CC[C@]23C)[C@@]1(C)C(=O)O [AKBA] |  |  |  |  |
| 78% |  | 15.6 µM | CC1CCN(CC(=O)O[C@@H]2CC[C@@]3(C)[C@@H](CC[C@]4(C)[C@@H]3C(=O)C=C3[C@@H]5[C@@H](C)[C@H](C)CC[C@]5(C)CC[C@]34C)[C@@]2(C)C(=O)O)CC1 |  |  |  |  |
| 56% |  | 37.6 µM | COC(=O)[C@@]1(C)c2[nH]nc(C(=O)O)c2C[C@@]2(C)[C@H]1CC[C@]1(C)[C@@H]2C(=O)C=C2[C@@H]3[C@@H](C)[C@H](C)CC[C@]3(C)CC[C@]21C |  |  |  |  |

Further lines, the compound ahead of its results:

| SMILES | inhibition [1] | IC50 [2] | GI50 (PC-3 [3]) | Activity (PC-3 [4]) | Activity (PC-3 [5]) | Activity (PC-3 [6]) | Activity (PC-3 [7]) |
| --- | --- | --- | --- | --- | --- | --- | --- |
| C[C@H]1[C@H](C)CC[C@]2(C)CC[C@]3(C)C(=CC(=O)[C@@H]4[C@@]5(C)CC[C@@H](OC(=O)CN6CCCCC6)[C@](C)(C(=O)O)[C@@H]5CC[C@]43C)[C@H]12 | 95% | 1.01 µM | 11.6 µM |  |  |  |  |
| C[C@H]1[C@H](C)CC[C@]2(C)CC[C@]3(C)C(=CC(=O)[C@@H]4[C@@]5(C)C/C(=C\C(=O)O)C(=O)[C@](C)(C(=O)N6CCCCC6)[C@@H]5CC[C@]43C)[C@H]12 | 89% | 0.55 µM | 7.11 µM |  |  |  |  |
| COC(=O)[C@@]1(C)c2onc(C(=O)O)c2C[C@@]2(C)[C@H]1CC[C@]1(C)[C@@H]2C(=O)C=C2[C@@H]3[C@@H](C)[C@H](C)CC[C@]3(C)CC[C@]21C | 41% |  | 37.6 µM |  |  |  |  |
| C[C@H]1[C@H](C)CC[C@]2(C)CC[C@]3(C)C(=CC(=O)[C@@H]4[C@@]5(C)CC[C@@H](OC(=O)CN(C)c6ccccc6)[C@](C)(C(=O)O)[C@@H]5CC[C@]43C)[C@H]12 | 94% | 1.27 µM | 13.7 µM |  |  |  |  |
| C[C@H]1[C@H](C)CC[C@]2(C)CC[C@]3(C)C(=CC(=O)[C@@H]4[C@@]5(C)C/C(=C\C(=O)O)C(=O)[C@](C)(C(=O)N6CCOCC6)[C@@H]5CC[C@]43C)[C@H]12 | 82% | 2.68 µM | 2.78 µM |  |  |  |  |
| C[C@H]1[C@H](C)CC[C@]2(C)CC[C@]3(C)C(=CC(=O)[C@@H]4[C@@]5(C)CC[C@@H](OC(=O)CN6CCN(c7cccc(C(F)(F)F)c7)CC6)[C@](C)(C(=O)O)[C@@H]5CC[C@]43C)[C@H]12 | 80% | 2.18 µM | 12.5 µM |  |  |  |  |
| C[C@H]1[C@H](C)CC[C@]2(C)CC[C@]3(C)C(=CC(=O)[C@@H]4[C@@]5(C)CC[C@@H](OC(=O)COc6ccc(Oc7ccccc7)cc6)[C@](C)(C(=O)O)[C@@H]5CC[C@]43C)[C@H]12 | 90% | 1.58 µM | 12.5 µM |  |  |  |  |
| COC(=O)[C@@]1(C)C(=O)/C(=C/c2ccccc2C(=O)O)C[C@]2(C)[C@H]3C(=O)C=C4[C@@H]5[C@@H](C)[C@H](C)CC[C@]5(C)CC[C@@]4(C)[C@]3(C)CC[C@@H]12 | 69% |  | 15.2 µM |  |  |  |  |
| C[C@H]1[C@H](C)CC[C@]2(C)CC[C@]3(C)C(=CC(=O)[C@@H]4[C@@]5(C)CC[C@@H](OC(=O)CN6CCOCC6)[C@](C)(C(=O)O)[C@@H]5CC[C@]43C)[C@H]12 | 78% |  | 10.6 µM |  |  |  |  |
| C[C@H]1[C@H](C)CC[C@]2(C)CC[C@]3(C)C(=CC(=O)[C@@H]4[C@@]5(C)CC[C@@H](OC(=O)COc6ccc(C(=O)/C=C/c7ccccc7)cc6)[C@](C)(C(=O)O)[C@@H]5CC[C@]43C)[C@H]12 | 95% | 0.97 µM | 8.84 µM |  |  |  |  |
| C[C@H]1[C@H](C)CC[C@]2(C)CC[C@]3(C)C(=CC(=O)[C@@H]4[C@@]5(C)CC[C@@H](OC(=O)CN(CCO)CCO)[C@](C)(C(=O)O)[C@@H]5CC[C@]43C)[C@H]12 | 59% |  | > 50 µM |  |  |  |  |
| CCN(CC)CC(=O)O[C@@H]1CC[C@@]2(C)[C@@H](CC[C@]3(C)[C@@H]2C(=O)C=C2[C@@H]4[C@@H](C)[C@H](C)CC[C@]4(C)CC[C@]23C)[C@@]1(C)C(=O)O | 58% |  | 10.7 µM |  |  |  |  |
| C[C@H]1[C@H](C)CC[C@]2(C)CC[C@]3(C)C(=CC(=O)[C@@H]4[C@@]5(C)CC[C@@H](OC(=O)CNc6ccccc6)[C@](C)(C(=O)O)[C@@H]5CC[C@]43C)[C@H]12 | 46% |  | 12.1 µM |  |  |  |  |
| C[C@H]1[C@H](C)CC[C@]2(C)CC[C@]3(C)C(=CC(=O)[C@@H]4[C@@]5(C)Cc6c(C(=O)O)n[nH]c6[C@](C)(C(=O)OCc6ccccc6)[C@@H]5CC[C@]43C)[C@H]12 | 31% |  | 22.7 µM |  |  |  |  |
| COC(=O)[C@@]1(C)C(=O)/C(=C/c2ccc(C(=O)O)cc2)C[C@]2(C)[C@H]3C(=O)C=C4[C@@H]5[C@@H](C)[C@H](C)CC[C@]5(C)CC[C@@]4(C)[C@]3(C)CC[C@@H]12 | 43% |  | > 50 µM |  |  |  |  |
| C[C@H]1[C@H](C)CC[C@]2(C)CC[C@]3(C)C(=CC(=O)[C@@H]4[C@@]5(C)Cc6c(C(=O)O)noc6[C@](C)(C(=O)OCc6ccccc6)[C@@H]5CC[C@]43C)[C@H]12 | 29% |  | 26.9 µM |  |  |  |  |
| C[C@H]1[C@H](C)CC[C@]2(C)CC[C@]3(C)C(=CC(=O)[C@@H]4[C@@]5(C)C/C(=C\c6ccccc6C(=O)O)C(=O)[C@](C)(C(=O)OCc6ccccc6)[C@@H]5CC[C@]43C)[C@H]12 | 94% | 0.68 µM | 3.29 µM |  |  |  |  |
| C[C@H]1[C@H](C)CC[C@]2(C)CC[C@]3(C)C(=CC(=O)[C@@H]4[C@@]5(C)C/C(=C\c6ccccc6)C(=O)[C@](C)(C(=O)OCc6ccccc6)[C@@H]5CC[C@]43C)[C@H]12 | 37% |  | > 50 µM |  |  |  |  |
